From paper PMC11762167, “G Protein-Coupled Receptor 17 Inhibits Glucagon-like Peptide-1 Secretion via a Gi/o-Dependent Mechanism in Enteroendocrine Cells” (Biomolecules, 2024)

Columns and labels:
Type in all cases: cell-based
[1] = biological target: T1, hGPR17L-V96M (Homo sapiens, UniProt Q13304, V96M); experiment: GLP-1 secretion from GLUTag cells expressing hGPR17L-V96M; conditions: 100 µM MDL29,951, GLUTag hGPR17L-V96M
T1 construct: host or cells: GLUTag cells, adenoviral transduction
Method: (§1) GLUTag cells were maintained in Dulbecco’s Modified Eagle Medium (DMEM) supplemented with 10% fetal bovine serum and 1% penicillin–streptomycin in a humidified incubator at 37 °C and 5% CO2. For adenovirus transduction, GLUTag cells were seeded into poly-D-lysine coated 96-well plates or 4-chamber slides. The next day, cells were transduced with adenoviruses (100–1250 viral particles per cell at time of seeding) as indicated. After 24–30 h, adenovirus-containing media was changed to serum-free growth media for overnight serum starvation. The following day, GLUTag cells were used for cAMP or calcium signaling assays, GLP-1 secretion assays, or immunostaining and imaging.
GLUTag cells were seeded into poly-D-lysine-coated 96-well plates and transduced with adenovirus as specified above and then tested for GLP-1 secretion. Medium was removed and cells were washed two times with GLP-1 secretion buffer (138 mM NaCl, 4.5 mM KCl, 4.2 mM NaHCO3, 2.5 mM CaCl2, 1.2 mM MgCl2, 10 mM HEPES, 1 mM glucose, and 0.1% bovine serum albumin, pH 7.4). […] Plates were then centrifuged at 300× g for 1 min at 4 °C, and 75 µL of the supernatant was removed and frozen at −80 °C until subsequent GLP-1 quantification. Total GLP-1 was quantified using the Meso Scale Discovery Total GLP-1 V-PLEX kit (Rockville, MD, USA; K1503PD) according to manufacturer’s instructions. […]

[2] = biological target: mGPR17 (Mus musculus, UniProt Q6NS65); experiment: Endpoint cAMP in GLUTag cells expressing mGPR17; parameters: host or cells: GLUTag cells, adenoviral transduction
Method: as §1
Endpoint cAMP measurements were conducted as follows. GLUTag cells were seeded into poly-D-lysine-coated 96-well plates and transduced with adenovirus as specified above and then tested for cAMP signaling. Medium was removed and cells were washed with cAMP stimulation buffer (Hanks’ balanced salt solution (HBSS), 20 mM HEPES, pH 7.4) and then incubated in cAMP stimulation buffer for 30 min at 37 °C and 5% CO2. Cells were then treated for 30 min with agonist and forskolin in the presence of 500 µM IBMX at 37 °C and 5% CO2. Stimulation buffer was then decanted, and cAMP lysis buffer (50 mM HEPES, 10 mM CaCl2, 0.35% Triton X-100, and 500 µM IBMX) was added and shaken at 700 rpm for 1 h. Lysate was transferred to a 384-well plate, and the cAMP levels were quantified using the Cisbio HTRF cAMP (Gi kit; Revvity, Waltham, MA, USA) according to the manufacturer’s protocol.

[3] = biological target: T2, hGPR17L (Homo sapiens, UniProt Q13304); experiment: Calcium flux (Calcium 6) in GLUTag cells expressing hGPR17L; parameters: host or cells: GLUTag cells (murine enteroendocrine line), adenoviral transduction; Mean Diff. Ctl vs. hGPR17L: unit not given here; conditions: for Mean Diff.: hGPR17L; for Mean Diff. (Tukey's multiple comparisons test, Figure 4C): hGPR17L-WT
Method: as §1
GLUTag cells were seeded into black, clear bottom, poly-D-lysine-coated 96-well plates. Cells were transduced and serum starved as specified above. Growth medium was then replaced with 100 μL/well assay buffer (HBSS, 20 mM HEPES, pH 7.4) and 100 μL/well Calcium 6 loading dye (R8190; Molecular Devices, San Jose, CA, USA). During dye loading, cells were incubated at 37 °C and 5% CO2 for 2 h. MDL29,951 or KCl was added to the wells and fluorescence (485 nm excitation, 525 nm emission, and 515 nm automatic emission cutoff) was measured using a Molecular Devices FlexStation3 (Molecular Devices) at 37 °C. For experiments with PTX, cells were pretreated with 100 ng/mL PTX overnight and 100 ng/mL PTX was included with Calcium 6 loading dye for calcium flux assays. For experiments with YM-254890, cells were pretreated for 30 min at 37 °C.

[4] = biological target: T2, hGPR17L; experiment: GloSensor cAMP in HEK293 cells transfected with hGPR17L; parameters: host or cells: GLUTag cells (murine enteroendocrine line), adenoviral transduction
Method: HEK293 cells were maintained and transfected as previously described.
Live-cell, real-time cAMP measurements were performed using Promega (Madison, WI, USA) GloSensor cAMP luminescent biosensor technology. Glosensor cAMP experiments were conducted as previously described in GLUTag cells and HEK293 cells.

T2 sequence (Q13304 whole entry): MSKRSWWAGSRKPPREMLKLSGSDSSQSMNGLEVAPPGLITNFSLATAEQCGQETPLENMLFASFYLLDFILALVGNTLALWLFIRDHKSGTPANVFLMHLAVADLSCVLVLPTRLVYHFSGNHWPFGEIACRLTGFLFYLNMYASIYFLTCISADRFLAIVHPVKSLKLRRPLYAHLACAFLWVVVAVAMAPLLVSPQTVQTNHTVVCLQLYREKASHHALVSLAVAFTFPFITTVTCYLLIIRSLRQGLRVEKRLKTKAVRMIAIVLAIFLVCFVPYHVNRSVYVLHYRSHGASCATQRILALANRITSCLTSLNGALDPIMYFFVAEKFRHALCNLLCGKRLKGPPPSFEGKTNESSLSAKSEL
Chain of mGPR17 (Q6NS65 whole entry): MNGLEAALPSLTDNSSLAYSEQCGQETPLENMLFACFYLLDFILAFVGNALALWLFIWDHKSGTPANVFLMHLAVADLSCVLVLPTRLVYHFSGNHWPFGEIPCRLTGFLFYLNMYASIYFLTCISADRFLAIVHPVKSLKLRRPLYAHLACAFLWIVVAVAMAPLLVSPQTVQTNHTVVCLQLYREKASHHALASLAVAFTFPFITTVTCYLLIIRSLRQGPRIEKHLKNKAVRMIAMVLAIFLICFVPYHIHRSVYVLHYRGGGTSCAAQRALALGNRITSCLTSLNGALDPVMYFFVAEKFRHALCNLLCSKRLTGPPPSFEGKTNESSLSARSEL
T1 sequence (Q13304 whole entry V96M): as the sequence (Q13304 whole entry) above, with V96M counted along it

O=C(O)CCc1c(C(=O)O)[nH]c2cc(Cl)cc(Cl)c12 [MDL29,951]
effect on F/I-stimulated GLP-1 secretion [1]: no effect | concentration of maximal inhibition of forskolin-stimulated cAMP ([2]; 10 µM forskolin, GLUTag mGPR17): 1 µM | Mean Diff. (Tukey's multiple comparisons test), cAMP, Row 10 vs. Row 11 ([2]; mGPR17 (100), log [MDL29,951] (M) -4.0 vs. Vehicle, Forskolin stimulation, Figure 4B): -19.04 | Mean Diff. (Tukey's multiple comparisons test), cAMP, Row 9 vs. Row 11 ([2]; mGPR17 (100), log [MDL29,951] (M) -4.6 vs. Vehicle, Forskolin stimulation, Figure 4B): -22.19 | Mean Diff. (Tukey's multiple comparisons test), cAMP, Row 8 vs. Row 11 ([2]; mGPR17 (100), log [MDL29,951] (M) -5.2 vs. Vehicle, Forskolin stimulation, Figure 4B): -23.87 | Mean Diff. (Tukey's multiple comparisons test), cAMP, Row 7 vs. Row 11 ([2]; mGPR17 (100), log [MDL29,951] (M) -5.8 vs. Vehicle, Forskolin stimulation, Figure 4B): -30.13 | Mean Diff. (Tukey's multiple comparisons test), cAMP, Row 6 vs. Row 11 ([2]; mGPR17 (100), log [MDL29,951] (M) -6.4 vs. Vehicle, Forskolin stimulation, Figure 4B): -28.75 | Mean Diff. (Tukey's multiple comparisons test), cAMP, Row 5 vs. Row 11 ([2]; mGPR17 (100), log [MDL29,951] (M) -7.0 vs. Vehicle, Forskolin stimulation, Figure 4B): -21.6 | Mean Diff. (Tukey's multiple comparisons test), cAMP, Row 4 vs. Row 11 ([2]; mGPR17 (100), log [MDL29,951] (M) -7.6 vs. Vehicle, Forskolin stimulation, Figure 4B): -16.65 | Mean Diff. (Tukey's multiple comparisons test), cAMP, Row 3 vs. Row 11 ([2]; mGPR17 (100), log [MDL29,951] (M) -8.2 vs. Vehicle, Forskolin stimulation, Figure 4B): -3.513 | Mean Diff. (Tukey's multiple comparisons test), cAMP, Row 2 vs. Row 11 ([2]; mGPR17 (100), log [MDL29,951] (M) -8.8 vs. Vehicle, Forskolin stimulation, Figure 4B): -3.853 | Mean Diff. (Tukey's multiple comparisons test), cAMP, Row 1 vs. Row 11 ([2]; mGPR17 (100), log [MDL29,951] (M) -9.4 vs. Vehicle, Forskolin stimulation, Figure 4B): -5.46 | Mean Diff. Ctl vs. hGPR17L ([3]; Figure 1B, Ctl vs. hGPR17L at log [MDL29,951] (M) -4.5): -0.777 | Mean Diff. Ctl vs. hGPR17L ([3]; Figure 1B, Ctl vs. hGPR17L at log [MDL29,951] (M) -5.0): -0.707 | Mean Diff. Ctl vs. hGPR17L ([3]; Figure 1B, Ctl vs. hGPR17L at log [MDL29,951] (M) -5.5): -0.62 | Mean Diff. Ctl vs. hGPR17L ([3]; Figure 1B, Ctl vs. hGPR17L at log [MDL29,951] (M) -6.0): -0.5407 | Mean Diff. Ctl vs. hGPR17L ([3]; Figure 1B, Ctl vs. hGPR17L at log [MDL29,951] (M) -6.4): -0.458 | Mean Diff. Ctl vs. hGPR17L ([3]; Figure 1B, Ctl vs. hGPR17L at log [MDL29,951] (M) -6.9): -0.31 | Mean Diff. Ctl vs. hGPR17L ([3]; Figure 1B, Ctl vs. hGPR17L at log [MDL29,951] (M) -7.4): -0.206 | Mean Diff. Ctl vs. hGPR17L ([3]; Figure 1B, Ctl vs. hGPR17L at log [MDL29,951] (M) -7.9): -0.06033 | Mean Diff. Ctl vs. hGPR17L ([3]; Figure 1B, Ctl vs. hGPR17L at log [MDL29,951] (M) -8.3): -0.009667 | Mean Diff. Ctl vs. hGPR17L ([3]; Figure 1B, Ctl vs. hGPR17L at log [MDL29,951] (M) -8.8): -0.002 | Mean Diff. ([3]; Figure 1B, log [MDL29,951] (M) -4.5 vs. Vehicle): 0.758 | Mean Diff. ([3]; Figure 1B, log [MDL29,951] (M) -5.0 vs. Vehicle): 0.6893 | Mean Diff. ([3]; Figure 1B, log [MDL29,951] (M) -5.5 vs. Vehicle): 0.6163 | Mean Diff. ([3]; Figure 1B, log [MDL29,951] (M) -6.0 vs. Vehicle): 0.538 | Mean Diff. ([3]; Figure 1B, log [MDL29,951] (M) -6.4 vs. Vehicle): 0.47 | Mean Diff. ([3]; Figure 1B, log [MDL29,951] (M) -6.9 vs. Vehicle): 0.3087 | Mean Diff. ([3]; Figure 1B, log [MDL29,951] (M) -7.4 vs. Vehicle): 0.2053 | Mean Diff. ([3]; Figure 1B, log [MDL29,951] (M) -7.9 vs. Vehicle): 0.06133 | Mean Diff. ([3]; Figure 1B, log [MDL29,951] (M) -8.3 vs. Vehicle): 0.004667 | Mean Diff. ([3]; Figure 1B, log [MDL29,951] (M) -8.8 vs. Vehicle): -0.001667 | maximum peak ΔF/F, calcium flux ([3]; GLUTag hGPR17L, Figure 1B): 0.80 ± 0.07 | pEC50, calcium flux ([3]; GLUTag hGPR17L, Figure 1B): 6.66 ± 0.13 | EC50 ([3]; GLUTag hGPR17L, Figure 1B, read-out: potency (EC50), calcium flux): 220 nM | shift in the EC50 of MDL29,951, calcium mobilization ([3]; PTX-treated versus vehicle-treated cells): 3 fold | Mean Diff. (Tukey's multiple comparisons test, Figure 4C) ([3]; log [MDL29,951] (M) -4.5 vs. Vehicle): 100.4 | Mean Diff. (Tukey's multiple comparisons test, Figure 4C) ([3]; log [MDL29,951] (M) -5.0 vs. Vehicle): 91.26 | Mean Diff. (Tukey's multiple comparisons test, Figure 4C) ([3]; log [MDL29,951] (M) -5.5 vs. Vehicle): 81.52 | Mean Diff. (Tukey's multiple comparisons test, Figure 4C) ([3]; log [MDL29,951] (M) -6.0 vs. Vehicle): 71.5 | Mean Diff. (Tukey's multiple comparisons test, Figure 4C) ([3]; log [MDL29,951] (M) -6.4 vs. Vehicle): 61.96 | Mean Diff. (Tukey's multiple comparisons test, Figure 4C) ([3]; log [MDL29,951] (M) -6.9 vs. Vehicle): 41.28 | Mean Diff. (Tukey's multiple comparisons test, Figure 4C) ([3]; log [MDL29,951] (M) -7.4 vs. Vehicle): 27.22 | Mean Diff. (Tukey's multiple comparisons test, Figure 4C) ([3]; log [MDL29,951] (M) -7.9 vs. Vehicle): 8.591 | Mean Diff. (Tukey's multiple comparisons test, Figure 4C) ([3]; log [MDL29,951] (M) -8.3 vs. Vehicle): 0.737 | Mean Diff. (Tukey's multiple comparisons test, Figure 4C) ([3]; log [MDL29,951] (M) -8.8 vs. Vehicle): -0.2507 | pEC50, calcium mobilization ([3]; vehicle-treated cells, Figure 2C): 6.34 ± 0.06 | EC50 ([3]; vehicle-treated cells, Figure 2C, read-out: EC50, calcium mobilization): 440 nM | cAMP Maximum Inhibition (% Inhibition) ([4]; 3 µM forskolin): 48±2.9% | cAMP Potency (pEC50) (reversal of inhibition) ([4]; 3 µM forskolin): 5.40±0.09 | cAMP Potency (pIC50) ([4]; 3 µM forskolin): 8.52±0.08 | EC50 ([4]; 3 µM forskolin, read-out: cAMP Potency EC50 (reversal of inhibition)): 4000 nM | IC50 ([4]; 3 µM forskolin-stimulated GloSensor cAMP, read-out: cAMP Potency IC50): 3 nM | cAMP Effect of 100 μM MDL (% Inhibition) ([4]; 100 μM MDL29,951, 3 µM forskolin): 9.0±2.1%
